Data published in patent publication US7858635B2 (priority 2005, dated 2010).
Like-named read-outs stand apart in the source and are kept apart here.

Columns and labels:
[1] = biological target: T1, M4 muscarinic receptor (Homo sapiens, UniProt P08173); test: Functional mobilization of intracellular calcium (FLIPR, Fluo-3), M4-CHO cells; format: cell-based; settings: for Emax: 100% efficacy is the maximum response obtained with the Carbachol control, read-out: M4 Efficacy
T1 construct: expressed in transfected cells; host or cells: CHO cells (M4-CHO, under puromycin, zeocin and blasticidin selection)
T1 sequence (P08173 1-479): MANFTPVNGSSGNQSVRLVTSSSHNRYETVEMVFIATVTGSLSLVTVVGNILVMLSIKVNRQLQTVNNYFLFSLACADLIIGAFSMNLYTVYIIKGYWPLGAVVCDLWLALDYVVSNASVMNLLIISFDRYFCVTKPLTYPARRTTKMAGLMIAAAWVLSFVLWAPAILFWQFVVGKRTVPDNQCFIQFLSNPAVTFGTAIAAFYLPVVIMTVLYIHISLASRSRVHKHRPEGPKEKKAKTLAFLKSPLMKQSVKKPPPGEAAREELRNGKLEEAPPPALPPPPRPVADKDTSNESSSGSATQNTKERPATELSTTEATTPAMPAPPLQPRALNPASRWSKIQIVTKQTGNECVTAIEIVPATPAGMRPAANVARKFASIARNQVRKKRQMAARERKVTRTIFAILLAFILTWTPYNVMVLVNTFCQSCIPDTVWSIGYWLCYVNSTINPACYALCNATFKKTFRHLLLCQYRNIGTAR
Description: (§1) CHO cells expressing muscarinic receptors (M1 to M5) are grown as monolayers in tissue culture flasks at 37° C. in a humidified atmosphere containing 5% CO2 and passaged every 3-5 days. The growth media is Dulbecco's modified eagles medium (DMEM, Gibco Cat#12430-054), containing 25 mM Hepes and supplemented with Fetal Bovine Serum (Hyclone, cat# SH30071.03), 0.1 mM of MEM non-essential amino acids (GIBCO, Cat# 11140-050), 1 mM MEM Sodium Pyruvate (GIBCO Cat# 11360-070) and 100 units/ml of Penicillin G and 100 μg/ml of Streptomycin (GIBCO Cat# 15140-122). The recombinant muscarinic receptor cell lines are grown under antibiotic pressure with media containing 25 μm/ml zeocin and 500 μg/ml G418 (M1-CHO), 4 μg/ml puromycin, 50 μg/ml zeocin and 2.5 μm/ml blasticidin (M2 and M4-CHO) or 50 μg/ml zeocin and 4 μg/ml puromycin (M3 and M5-CHO).
(§2) Cells are harvested at 80-90% confluence using Versene (GIBCO Cat# 15040-066), collected by centrifugation and seeded 18-24 hrs prior to running the calcium assay at a density of 5,000-10,000 cells/well in […], clear-bottomed 384-well plates (BD Biocoat, poly-D-lysine, Cat#356663). The day of the experiment, the cells are washed with a plate washer (Bioteck Instruments, ELX 405) using bath1 buffer (140-mM NaCl, 4.5-mM KCL, 2-mM CaCl2, 1-mM MgCl2, 10-mM Hepes-Na, 10-mM Glucose, pH 7.4, with NaOH) containing 1 mM Probenecid. Next, the calcium dye Fluo-3 (25 μl/well of Fluo-3 μM at 4 μM, Molecular Probes F-1241, in Bath 1 buffer containing 1 mM Probenecid) is added to the 25 μl of Bath 1 remaining in each well after the plate wash and the dye is loaded at 37° C. in the tissue culture incubator for 60-90 min. The fluorescent dye is removed using the plate washer with Bath 1 containing 1 mM Probenecid, leaving 25 μl/well of this solution after the wash. Alternatively, cells can be loaded with the calcium indicator from Molecular Devices (Calcium 3 Assay Reagents, Cat # R7181) adding 5 μl of a 5× solution dye in Bath 1 containing 1 mM Probenecid (10 ml per dye flask cat# R7182 to generate a solution 20×) to 20 μl of the same buffer. After loading for 60 min, the experiment can be run without having to remove the dye.
(§3) Compounds are prepared at a 2× fold concentration in a 96-well plate (round bottom, Costar Corning cat# 3656), by reconstituting the pre-spotted compounds in bath 1 containing 1 mM probenecid. The final concentration DMSO is 0.5%, and the amount of DMSO is normalized across the assay plate. To determine an agonist action of the compounds on muscarinic receptors, the reconstituted compounds are added (25 μl compound/well) to the cell assay plate (containing 25 μl/well) using the multi-channel robotic system of the FLIPR 3 Instrument (Molecular Devices, Sunnyvale, Calif.). To determine a functional inhibitory action of the compounds on muscarinic receptors, the reconstituted compounds are added (25 μl compound/well) to the assay plate and pre-incubated for 15 min prior to adding 25 μl of Carbachol at 3× the EC80 for each muscarinic subtype. Alternatively, the compounds can be co-applied simultaneously with the agonist. In both assay modes, the fluorescence is recorded for 60 sec (excitation wavelength is […] and emission wavelength 540 nm) using the FLIPR 3 instrument.
(§4) The potency, efficacy and selectivity of the muscarinic compounds were evaluated by screening the compound activity across the whole family (M1 to M5 cells). Compounds were also screened for activity on other proteins such as other GPCRs and ion channels to determine selectivity on M4 receptors.

[2] = biological target: T2, M1 muscarinic receptor (Homo sapiens, UniProt P11229); test: Functional mobilization of intracellular calcium (FLIPR, Fluo-3), M1-CHO cells; format: cell-based; settings: for Emax: 100% efficacy is the maximum response obtained with the Carbachol control, read-out: M1 Efficacy
T2 construct: expressed in transfected cells; host or cells: CHO cells (M1-CHO, under zeocin and G418 selection)
T2 sequence (P11229 1-460): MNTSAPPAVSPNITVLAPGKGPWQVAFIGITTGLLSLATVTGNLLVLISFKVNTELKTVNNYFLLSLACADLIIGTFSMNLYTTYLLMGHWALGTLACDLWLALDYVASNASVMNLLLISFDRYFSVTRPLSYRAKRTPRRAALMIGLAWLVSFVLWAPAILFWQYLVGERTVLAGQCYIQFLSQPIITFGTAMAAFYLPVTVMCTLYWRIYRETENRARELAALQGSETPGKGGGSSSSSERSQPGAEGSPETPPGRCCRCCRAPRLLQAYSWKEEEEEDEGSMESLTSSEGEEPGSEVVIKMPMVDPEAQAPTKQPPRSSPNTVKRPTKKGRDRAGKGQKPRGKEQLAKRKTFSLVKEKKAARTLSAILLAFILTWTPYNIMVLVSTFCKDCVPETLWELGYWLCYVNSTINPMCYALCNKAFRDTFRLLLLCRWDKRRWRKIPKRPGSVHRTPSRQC
Description: as §1, §2, §3, §4

[3] = compound nos. 1-454, M4-CHO cells, calcium mobilization
[4] = compound nos. 1-454, M1-CHO cells, calcium mobilization

Structure (SMILES) | Emax ([1]; compound nos. 1-454) [%] | M4 Activity [1, 3] | Emax ([2]; compound nos. 1-454) [%] | M1 Activity [2, 4] | Emax ([1]; compound nos. 455-509) [%] | M4 Activity ([1]; compounds 455-509) | Emax ([2]; compound nos. 455-509) [%] | M1 Activity ([2]; compounds 455-509) | M4 Activity ([1]; compound nos. 1-454) | M1 Activity ([2]; compound nos. 1-454)
CC(=O)N(C)[C@H]1CC2(CCN(C[C@H]3C[C@H]4CC[C@@H]3C4)CC2)c2ccccc21 [compound 190, N—((S)-1′-((1R,2S,4S)-bicyclo[2.2.1]heptan-2-ylmethyl)-2,3-dihydrospiro[indene-1,4′-piperidine]-3-yl)-N-methylacetamide] | 55 to 70 | + (activity was measured to be greater than or equal to 4.0 μM) | > 85 | + (activity was measured to be greater than or equal to 3.0 μM) |  |  |  |  |  | 
COCCOC(=O)N1CCC(N2CCC3(CC2)CN(C(C)=O)c2ccc(F)cc23)CC1 [compound 284] | < 55 | ++ (activity was measured to be between 0.1 μM and 4.0 μM) | < 65 | ++ (activity was measured to be between 0.7 μM and 3.0 μM) |  |  |  |  |  | 
CCCc1cnc(N2CCC(N3CCC4(CC3)CN(C(=O)N(C)C)c3ccccc34)CC2)cn1 [compound 459] |  |  |  |  | 25 to 100 | ++ (activity was measured to be between 2.0 μM and 5.0 μM) | > 100 | ++ (activity was measured to be between 2.0 μM and 5.0 μM) |  | 
O=C1CC2(CCN(C[C@@H]3C[C@H]4C=C[C@H]3C4)CC2)c2ccccc21 [compound 238] | < 55 | + (activity was measured to be greater than or equal to 4.0 μM) | < 65 | + (activity was measured to be greater than or equal to 3.0 μM) |  |  |  |  |  | 
CCOC(=O)N1CCC(N2CCC3(CC2)CN(C(=O)C(C)C)c2ccc(F)cc23)CC1 [compound 142] | > 70 | + (activity was measured to be greater than or equal to 4.0 μM) | 65 to 85 | +++ (activity was measured to be less than or equal to 0.7 μM) |  |  |  |  |  | 
CS(=O)(=O)N1CC2(CCN(C3CC4CCC(C3)N4C(=O)OC3CCC3)CC2)c2cc(F)ccc21 (centres unmarked) [compound 122] | < 55 | ++ (activity was measured to be between 0.1 μM and 4.0 μM) | 65 to 85 | +++ (activity was measured to be less than or equal to 0.7 μM) |  |  |  |  |  | 
CCCOC(=O)N1CCC(N2CCC3(CC2)CN(C(=O)N(C)C)c2ccc(F)cc23)CC1 [compound 91] | < 55 | ++ (activity was measured to be between 0.1 μM and 4.0 μM) | 65 to 85 | +++ (activity was measured to be less than or equal to 0.7 μM) |  |  |  |  |  | 
O=C(O[C@H]1CCOC1)N1C2CCC1CC(N1CCC3(CCc4ccccc43)CC1)C2 (some centres unmarked) [compound 355] | 55 to 70 | ++ (activity was measured to be between 0.1 μM and 4.0 μM) | 65 to 85 | ++ (activity was measured to be between 0.7 μM and 3.0 μM) |  |  |  |  |  | 
CCCC1CCC(N2CCC3(CC2)CNc2ccc(Cl)cc23)CC1 (centres unmarked) [compound 341] | < 55 | + (activity was measured to be greater than or equal to 4.0 μM) | < 65 | + (activity was measured to be greater than or equal to 3.0 μM) |  |  |  |  |  | 
CC(=O)N1CC2(CCN(C3CCN(C(=O)O[C@H]4CCOC4)CC3)CC2)c2cc(F)ccc21 [compound 418] | < 55 |  | < 65 |  |  |  |  |  | + (activity was measured to be greater than or equal to 4.0 μM) | + (activity was measured to be greater than or equal to 3.0 μM)
CCCC1CCC(N2CCC3(CC2)CNc2ccc(F)cc23)CC1 (centres unmarked) [compound 328] | 55 to 70 | + (activity was measured to be greater than or equal to 4.0 μM) | < 65 | ++ (activity was measured to be between 0.7 μM and 3.0 μM) |  |  |  |  |  | 
CCOC(=O)N1CCC(N2CCC3(CC2)CN(C(=O)C2CCCCC2)c2ccc(F)cc23)CC1 [compound 281] | 55 to 70 | ++ (activity was measured to be between 0.1 μM and 4.0 μM) | < 65 | ++ (activity was measured to be between 0.7 μM and 3.0 μM) |  |  |  |  |  | 
CN(C)C(=O)N1CC2(CCN(C3CCN(c4ccccc4F)CC3)CC2)c2cc(F)ccc21 [compound 437] | < 55 |  | 65 to 85 |  |  |  |  |  | ++ (activity was measured to be between 0.1 μM and 4.0 μM) | ++ (activity was measured to be between 0.7 μM and 3.0 μM)
CCOC(=O)N1CCC(N2CCC3(CC2)CN(C(=O)c2ccccc2)c2ccc(F)cc23)CC1 [compound 384] | < 55 |  | < 65 |  |  |  |  |  | + (activity was measured to be greater than or equal to 4.0 μM) | ++ (activity was measured to be between 0.7 μM and 3.0 μM)
Cc1nsc(N2CC3(CCN(C4CC5CCC(C4)N5c4nc(C)ns4)CC3)c3ccccc32)n1 (centres unmarked) [compound 477] |  |  |  |  | 25 to 100 | ++ (activity was measured to be between 2.0 μM and 5.0 μM) | > 100 | +++ (activity was measured to be less than or equal to 2.0 μM) |  | 
Cc1csc(N2CCC(N3CCC4(CC3)CN(C(=O)N(C)C)c3ccccc34)CC2)n1 [compound 499] |  |  |  |  | 25 to 100 | ++ (activity was measured to be between 2.0 μM and 5.0 μM) | > 100 | + (activity was measured to be greater than or equal to 5.0 μM) |  | 
CCOC(=O)N1CCC(N2CCC3(CC2)CN(C(C)=O)c2ccc(C4=CCCC4)cc23)CC1 [compound 426] | < 55 |  | < 65 |  |  |  |  |  | + (activity was measured to be greater than or equal to 4.0 μM) | + (activity was measured to be greater than or equal to 3.0 μM)
